Results on 3 compounds are retold here after paper PMC3977056, “Optimum Conditions of Radioligand Receptor Binding Assay of Ligands of Benzodiazepine Receptors” (Iranian Journal of Pharmaceutical Research : IJPR, 2014).

In test [1] the target is T1, GABAA receptor, benzodiazepine (BZD) binding site (rat cortical membrane).
T1 construct: native receptor in cortical membrane of male Sprague-Dawley rats
As to the kind of experiment: radioligand saturation binding, centrifugation separation.

The target is the same in test [2]. As to the kind of experiment: [3H]-flumazenil competition binding.
For test [3] the target is unchanged. As to the kind of experiment: [3H]-flumazenil competition binding; […] used for nonspecific binding.

For orientation: Kd means the concentration at which binding is half-saturated. Read a high Kd as a looser complex. `CCOC(=O)c1ncn2c1CN(C)C(=O)c1cc(F)ccc1-2` [[3H]-flumazenil] gave a Kd in test [1] of 1.35 ± 0.316 nM. The Ki is a dissociation constant, usually derived from enzyme kinetics or from competition with a known ligand. Read a high Ki as lower affinity. `Cc1cc(=O)n2nc(-c3ccccc3)oc2n1` [compound A, 2-phenyl-5-oxo-7-methyl-1,3,4-oxadiazolo[a,2,3]-pyrimidine]: in test [2], the Ki was 1.9 nM. In test [3], `CN1C(=O)CN=C(c2ccccc2)c2cc(Cl)ccc21` [diazepam] displayed a Ki of 1.53 nM.
